What was measured:
HepG2 cells = experiment: Blocking HGF-induced migration of HepG2 cells; type: cell-based, human; details: HGF in lower chamber, 3 days, FIG. 6
From the text: HepG2 cells were human liver cancer cells and purchased from ATCC, which were capable of expressing EGFR and c-Met receptors. When HGF was placed in the lower chamber culture medium, it would induce HepG2 cells in the upper chamber to migrate to the lower chamber through the filter membrane. The specific experimental method was as follows: HepG2 cells were expanded to an appropriate density, the cells were digested and detached from the cell culture flask, resuspended to 1×10^6 cells/ml, and added to the upper chamber of the 24-well cell migration plate (purchased from Corning) at 100 μL per well for later use. The bispecific antibody was diluted to 200 nM with MEM, added to the upper chamber of the 24-well cell migration plate at 100 μL per well, and incubated at 25° C. for 60 min. h.HGF (purchased from R&D) was diluted to 50 ng/mL with MEM, added to the lower chamber of the cell migration plate at 500 μL/well, and cultured for 3 days at 37° C. and 5% carbon dioxide. The non-migrated cells on the upper chamber membrane were gently wiped with cotton swabs, the cells that migrated to the lower chamber membrane were lysed with Cell titer glo (purchased from Promega), and the chemiluminescent signal was collected with an microplate plate reader.

[1] = tested on: H292 human lung cancer tumor cells; experiment: Experimental Model 4: H292 tumor-bearing model, comparison with Rybrevant; type: in vivo, CB-17 SCID mice; details: H292, single dose Day 14: 10 mg/kg; last measured 27 days after inoculation
From the text: In this experiment, CB-17 SCID mice were subcutaneously inoculated with H292 human lung cancer tumor cells to establish a tumor-bearing model, and the anti-EGFRxc-Met bispecific antibody was compared with the commercially available EGFRxc-Met bispecific antibody Rybrevant (purchased from Johnson & Johnson, batch number: LHS3G02) (this antibody had been published at various oncology conferences and was also known as JNJ-6372) in terms of anti-tumor effect. The mouse model establishment process was the same as that of Experimental Model 1. The groups were divided according to the grouping and dosing scheme in Table 9 and the corresponding doses of antibodies were injected.
The tumor volume and body weight of the mice were measured 2 to 3 times a week. The weight and tumor volume of the mice were measured for the last time 27 days after the inoculation of tumor cells, and the mice were euthanized.

[2] = tested on: H1975-HGF human lung cancer cells; experiment: Experimental Model 5: H1975-HGF tumor-bearing model, combination with Osimertinib; type: in vivo, CB-17 SCID mice; details: antibody Day 16 and Day 18: 3 mg/kg, Osimertinib Days 16 to 22: 3 mg/kg/day, last measured 28 days after inoculation
From the text: In this experiment, the in vivo efficacy of the bispecific antibody of the present application in combination with an small molecule EGFR inhibitor (e.g., Osimertinib) was detected. Using the lentiviral transfection method, the cDNA encoding human HGF (hepatocyte growth factor) (the sequence was from UniProtKB P14210) was constructed on the pLVX-neu vector by General Biol, and the plasmid was transfected into H1975 cells to construct a cell line ([…]) with stable expression of HGF. In this experiment, CB-17 SCID mice were subcutaneously inoculated with H1975-HGF human lung cancer cells to establish a tumor-bearing model and determine the anti-tumor effect of the anti-EGFRxc-Met bispecific antibody. The model construction process was the same as that of Experimental Model 2. The mice were divided into groups according to the grouping and dosing scheme in Table 10 and the corresponding doses of antibodies were injected.
The tumor volume and body weight of mice were measured 2 to 3 times a week. The body weight and tumor volume of mice were measured for the last time 28 days after the tumor cell inoculation, and then the mice were euthanized.

[3] = target: T1, EGFR which expressed on H292 cells (Homo sapiens, UniProt P00533); experiment: Blocking EGF-EGFR interaction on H292 cells (flow cytometry, Biotin-h.EGF); type: cell-based; details: negative controls, FIG. 3
T1 construct: H292 cells, which were human non-small cell lung cancer cells purchased from Procell, were capable of expressing EGFR and c-Met receptors; host or cells: H292 cells
Procedure: H292 cells, which were human non-small cell lung cancer cells purchased from Procell, were capable of expressing EGFR and c-Met receptors. H292 cells were expanded to a suitable density, digested and detached from the cell culture flask, resuspended to 1×10^6 cells/ml, added to a 96-well flow plate, 100 μL per well, and centrifuged for later use. The antibody to be tested was subjected to 3-fold dilution with PBS, starting from 200 nM, and the diluted sample was added to the 96-well flow plate with cells, 100 μL/well, and incubated at 25° C. for 60 min. Biotin-h.EGF was diluted to 100 nM with PBS, added to the 96-well flow plate with cells, 100 μL/well, and incubated at 25° C. for 60 min. then washed twice with PBS. Streptavidin-FITC (purchased from Jackson) was diluted 100 times with PBS and added to the plate, 100 µL/well, incubated at 4° C. for 30 min, and washed twice with PBS. 100 μL/well of PBS was added to resuspend the cells, then the cells were detected on a CytoFlex (Beckman) flow cytometer, and the corresponding MFI was calculated.

A375/H1975/HCC827 cells = experiment: ADCC induction, CD16a-NFAT-Luc Jurkat reporter gene cells; type: cell-based, human; details: A375, H1975, HCC827 target cells, CD16a-NFAT-Luc Jurkat effector cells, 6 h, FIG. 9
From the text: A375 cells were human malignant melanoma cells and purchased from Addexbio, which were capable of expressing EGFR and c-Met receptors. H1975 cells were human lung adenocarcinoma cells and purchased from Addexbio, which were capable of highly expressing EGFR and c-Met receptors. HCC827 cells were human non-small cell lung cancer cells and purchased from the Cell Bank of the Chinese Academy of Sciences, which were capable of highly expressing EGFR and c-Met receptors. […]

Compound: anti-EGFR single-arm antibody: anti-EGFR single-arm antibody prepared based on the control antibody Amivantamab; heavy chain SEQ ID NO: 42, light chain SEQ ID NO: 4 [reference compound]
- blocking of HGF-induced migration of HepG2 cells (HepG2 cells): could not block

Compound: Rybrevant: commercially available EGFRxc-Met bispecific antibody, purchased from Johnson & Johnson, batch number LHS3G02 [reference compound]
- TGI [1]: 67.9%
- TGI [2]: 44.1%

Compound: anti-MET single-arm antibody: anti-c-Met single-arm molecule constructed based on the control molecule Amivantamab; heavy chain SEQ ID NO: 43, light chain SEQ ID NO: 8 [reference compound]
- blocking interaction between EGF and EGFR [3]: could not block

Compound: Amivantamab analog: control anti-EGFRxcMet bispecific antibody with anti-cMet arm of WO2011/110642A2, obtained in normal host cells [reference compound]
- ADCC effect (A375/H1975/HCC827 cells): induced ADCC effects

Compound: C=CC(=O)Nc1cc(Nc2nccc(-c3cn(C)c4ccccc34)n2)c(OC)cc1N(C)CCN(C)C [Osimertinib]
- TGI [2]: 38.9%

Reference: US20250223366A1, “MONOCLONAL ANTIBODIES AND BISPECIFIC ANTIBODY AGAINST C-MET” (BIOTHEUS INC., priority 2022, published 2025)
